Consider 21 compounds from ChEMBL document CHEMBL3585245, “Synthesis and antiproliferative evaluation of 9-methoxy-6-(piperazin-1-yl)-11H-indeno[1,2-c]quinoline-11-one derivatives. Part 4” (Medchemcomm, 2014).

One assay has as its system AGS. The experiment in a line: Antiproliferative activity against human AGS cells incubated for 72 hrs by MTT assay. It counts as functional, cell-based. (In general: Tetrazolium dyes change colour on reduction, which living cells bring about.)
Assay [1] in a line: Antiproliferative activity against human SKHep cells incubated for 72 hrs by MTT assay. It counts as functional, cell-based.
A further assay has as its system HeLa. The experiment in a line: Antiproliferative activity against human HeLa cells incubated for 72 hrs by MTT assay. It counts as functional, cell-based.
In another assay the test system is Detroit 551. Nature of the assay: Antiproliferative activity against human Detroit 551 cells incubated for 72 hrs by MTT assay. The settings on record: Detroit 551, 72 h. It is filed as functional, cell-based.
Assay [2] can be described thus: Antiproliferative activity against human 786-O cells incubated for 72 hrs by MTT assay. Conditions: 786-0, 72 h. It is filed as functional, cell-based.
For the next assay, the system named is MDA-MB-231. Nature of the assay: Antiproliferative activity against human MDA-MB-231 cells incubated for 72 hrs by MTT assay. It is filed as functional, cell-based. The settings on record: MDA-MB-231, 72 h.
For the next assay, the system named is NCI-H1299. Nature of the assay: Antiproliferative activity against human H1299 cells incubated for 72 hrs by MTT assay. It counts as functional, cell-based. Conditions: NCI-H1299, 72 h.
A further assay concerns SAS. Nature of the assay: Antiproliferative activity against human SAS cells incubated for 72 hrs by MTT assay. It counts as functional, cell-based.
A further assay concerns Nucleic Acid. Nature of the assay: Induction of DNA intercalation of negative supercoiled Escherichia coli pBR322 DNA at 10 uM incubated for 12 hrs by ethidium bromide staining based DNA mobility assay. It is filed as nucleic-acid assay.

Calls of active or inactive are those of the source. The calls are words filed in the database; no cut-off is given here. A value given as a limit tells only on which side of the number the result lay.

For the compound `CNCCC(=O)N1CCN(c2nc3ccccc3c3c2-c2ccc(OC)cc2C3=O)CC1`, the IC50 in the assay on AGS was 8.11 µM; in [1], 9.1 µM; in the assay on HeLa, 1.9 µM; in the assay on Detroit 551, 2.92 µM; in assay [2], 6 µM; in the assay on MDA-MB-231 it was 5.89 µM. Moreover, the results for the IC50 with NCI-H1299 and in the assay on SAS were 5.46 µM and 6.9 µM, respectively.

Consider `COc1ccc2c(c1)C(=O)c1c-2c(N2CCN(C(=O)CNCCN(C)C)CC2)nc2ccccc12`, for which the concentration for half-maximal inhibition (IC50) in the assay with AGS is 14.1 µM; in assay [1] it was 16 µM; in the assay on HeLa, 8.17 µM; with Detroit 551 it was 4.59 µM; in assay [2] it was 9.37 µM; with MDA-MB-231, 6.15 µM. The IC50 is 6.48 µM with NCI-H1299 and 19.5 µM with SAS.

Regarding `CNCC(=O)N1CCN(c2nc3ccccc3c3c2-c2ccc(OC)cc2C3=O)CC1`, the IC50 in the assay with AGS turned out to be 7.15 µM; in assay [1], 4.83 µM; in the assay with HeLa it was 2.04 µM; with Detroit 551, 4.84 µM; in [2], 6.2 µM; with MDA-MB-231 it was 5.92 µM. Moreover, the values for the IC50 in the assay with NCI-H1299 and in the assay on SAS were 5.14 µM and 7.4 µM, respectively.

On to `COc1ccc2c(c1)C(=O)c1c-2c(N2CCN(C(=O)CNCCO)CC2)nc2ccccc12`, for which the IC50 in the assay on AGS worked out at 6.55 µM; in assay [1] it was 6.64 µM; in the assay on HeLa it was 4.74 µM; in the assay with Detroit 551, 8.78 µM; in assay [2] it was 6.7 µM; in the assay with MDA-MB-231, 5.9 µM. In addition, the IC50 in the assay with NCI-H1299 is 5.41 µM; in the assay with SAS, 11.3 µM.

As for `COc1ccc2c(c1)C(=O)c1c-2c(N2CCN(C(=O)CCNCCCN(C)C)CC2)nc2ccccc12`, the IC50 in the assay on AGS was 2.8 µM; in [1], 8.6 µM; in the assay on HeLa it was 5.43 µM; in the assay with Detroit 551, 6.42 µM; in assay [2] it was 5.9 µM; with MDA-MB-231, 5.7 µM. For the same compound, the IC50 with NCI-H1299 is 5.44 µM; in the assay on SAS it was 13.5 µM.

Take `COc1ccc2c(c1)C(=O)c1c-2c(N2CCN(C(=O)CCN3CCNCC3)CC2)nc2ccccc12`: the IC50 worked out at 5.46 µM with AGS; 4.93 µM in assay [1]; 4.71 µM in the assay with HeLa; 3.35 µM in the assay with Detroit 551; 1.5 µM in assay [2]; 6.26 µM in the assay with MDA-MB-231. Also, the half-maximal inhibitory concentration (IC50) came out at 5.87 µM in the assay on NCI-H1299 and 7.7 µM in the assay on SAS.

For the compound `COc1ccc2c(c1)C(=O)c1c-2c(N2CCN(C(=O)CN3CCOCC3)CC2)nc2ccccc12`, the IC50 in the assay with AGS is 21.4 µM; in assay [1] it was 19.9 µM; in the assay with HeLa, 18 µM; in [2] it was greater than 30 µM; in the assay with MDA-MB-231, greater than 30 µM; with NCI-H1299, greater than 30 µM. In the assay with SAS, this compound had an IC50 greater than 30 µM.

Take `COc1ccc2c(c1)/C(=N\OCCN1CCCC1)c1c-2c(O)nc2ccccc12`: the outcome in the assay on Nucleic Acid was Active.

Take `CNCC(O)CN1CCN(c2nc3ccccc3c3c2-c2ccc(OC)cc2C3=O)CC1` (stereo not drawn): the IC50 with AGS was found to be 9.58 µM; in assay [1] it was 3.44 µM; in the assay on HeLa, 4.64 µM; with Detroit 551, 9.4 µM; in assay [2] it was 6.4 µM; in the assay with MDA-MB-231, 6.05 µM. Moreover, the IC50 amounted to 6.89 µM with NCI-H1299 and 7.4 µM in the assay on SAS.

With `COc1ccc2c(c1)C(=O)c1c-2c(N2CCN(C(=O)CNCCCN(C)C)CC2)nc2ccccc12`, the IC50 was found to be 5.62 µM in the assay with AGS; 13.1 µM in assay [1]; 10.8 µM with HeLa; 8.89 µM in the assay on Detroit 551; 9.97 µM in assay [2]; 6 µM in the assay on MDA-MB-231. Further, the IC50 is 5.99 µM in the assay on NCI-H1299 and greater than 30 µM in the assay on SAS.

On to `COc1ccc2c(c1)/C(=N\OCC(O)CN(C)C)c1c-2c(N2CCN(CC(O)CN(C)C)CC2)nc2ccccc12` (stereo not drawn), for which the IC50 with AGS was determined as 18.6 µM; in [1], 2.46 µM; in the assay on HeLa it was 0.98 µM; in the assay with Detroit 551, 2.05 µM; in assay [2], 13.9 µM; in the assay on MDA-MB-231, 0.7 µM. In addition, the IC50 with NCI-H1299 was found to be 0.68 µM; in the assay on SAS, 9 µM.

Turning to `COc1ccc2c(c1)C(=O)c1c-2c(N2CCN(CC(O)CN(C)C)CC2)nc2ccccc12` (stereo not drawn), the half-maximal inhibitory concentration (IC50) came out at 7.86 µM with AGS; 2.22 µM in assay [1]; 2.47 µM in the assay on HeLa; 2.58 µM with Detroit 551; 6.8 µM in assay [2]; 6.11 µM with MDA-MB-231. For the same compound, the results for the IC50 with NCI-H1299 and in the assay on SAS were 6.84 µM and 6.9 µM, respectively.

For the compound `COc1ccc2c(c1)C(=O)c1c-2c(N2CCN(C(=O)CCNCCN(C)C)CC2)nc2ccccc12`, the IC50 in the assay with AGS came out at 4.94 µM; in [1], 5.08 µM; with HeLa it was 4.78 µM; with Detroit 551, 2.53 µM; in assay [2], 7.03 µM; in the assay with MDA-MB-231, 7.44 µM. Moreover, the IC50 in the assay with NCI-H1299 is 5.65 µM; with SAS it was 8.8 µM.

For `COc1ccc2c(c1)C(=O)c1c-2c(N2CCN(C(=O)CN(C)C)CC2)nc2ccccc12`, the IC50 is 8.7 µM with AGS; 19.2 µM in [1]; 11.8 µM with HeLa; 31.5 µM with Detroit 551; 14.1 µM in assay [2]; 6.15 µM in the assay on MDA-MB-231. Moreover, the IC50 with NCI-H1299 is 6.28 µM; in the assay with SAS it was greater than 30 µM.

On to `COc1ccc2c(c1)/C(=N\O)c1c-2c(N2CCNCC2)nc2ccccc12`, for which the IC50 was 1.74 µM with AGS; 3.75 µM in assay [1]; 2.35 µM with HeLa; 1.2 µM in [2]; 5.87 µM in the assay with MDA-MB-231; 5.72 µM with NCI-H1299. Moreover, inhibition with SAS was half-maximal at 6.1 µM (IC50).

Take `COc1ccc2c(c1)C(=O)c1c-2c(N2CCN(C(=O)CN3CCNCC3)CC2)nc2ccccc12`: the IC50 in the assay on AGS was 3.37 µM; in [1], 2.22 µM; with HeLa it was greater than 30 µM; in the assay with Detroit 551 it was 2.55 µM; in [2] it was 4 µM; with MDA-MB-231 it was 5.45 µM. For the same compound, the IC50 in the assay with NCI-H1299 worked out at 5.32 µM; with SAS it was 7.4 µM.

Regarding `CC[C@@]1(O)C(=O)OCc2c1cc1n(c2=O)Cc2cc3ccccc3nc2-1` [CAMPTOTHECIN], the IC50 in the assay on AGS stood at 23.8 µM; in assay [1], 0.22 µM; in the assay with HeLa, 0.18 µM; in the assay with Detroit 551, 0.99 µM; in [2] it was 0.015 µM; with MDA-MB-231, 2.11 µM. For the same compound, the IC50 in the assay on NCI-H1299 came to 3.14 µM; with SAS it was 6 µM.

With `COc1ccc2c(c1)C(=O)c1c-2c(N2CCNCC2)nc2ccccc12`, the IC50 is 10.1 µM in the assay with AGS; 25.3 µM in assay [1]; 15.2 µM with HeLa; 5.71 µM in the assay on Detroit 551; 12.5 µM in assay [2]; 23.8 µM in the assay with MDA-MB-231. In addition, the values for the 50% inhibitory concentration (IC50) in the assay with NCI-H1299 and in the assay with SAS were 17.1 µM and greater than 30 µM, respectively.

Turning to `COc1ccc2c(c1)C(=O)c1c-2c(N2CCN(C(=O)CCN3CCOCC3)CC2)nc2ccccc12`, the IC50 is 12 µM with AGS; 15.1 µM in assay [1]; 14.3 µM in the assay on HeLa; greater than 30 µM in assay [2]; 21.9 µM with MDA-MB-231; 18.7 µM in the assay on NCI-H1299. This compound displayed an IC50 with SAS greater than 30 µM.

For `COc1ccc2c(c1)C(=O)c1c-2c(N2CCN(C(=O)CCN(C)C)CC2)nc2ccccc12`, the concentration for half-maximal inhibition (IC50) came out at 8.11 µM in the assay with AGS; 16.6 µM in [1]; 11.7 µM in the assay with HeLa; 2.84 µM in the assay with Detroit 551; 11.5 µM in assay [2]; 6.61 µM in the assay with MDA-MB-231. Moreover, the IC50 in the assay with NCI-H1299 amounted to 5.79 µM; with SAS, 17 µM.

Regarding `COc1ccc2c(c1)C(=O)c1c-2c(N2CCN(C(=O)CCNCCO)CC2)nc2ccccc12`, the IC50 with AGS is 3.67 µM; in assay [1], 4.51 µM; in the assay on HeLa it was 3.13 µM; with Detroit 551 it was 8.38 µM; in [2] it was 2.03 µM; with MDA-MB-231 it was 6.08 µM. In addition, the 50% inhibitory concentration (IC50) with NCI-H1299 amounted to 5.67 µM; with SAS, 9.1 µM.

In general, IC50 refers to the midpoint of a concentration-inhibition curve. High values mean weaker potency in that assay, low ones greater potency in that assay.
